Test results reported in patent publication US20060148674A1, “Therapeutic composition” (priority 2004, published 2006).

Key:
[1] = system: BT-549 breast cancer cell line; experiment: drug resistance of breast cancer cell line; type: cell-based; conditions: BT-549 compared with MCF-7
alpha/beta III dimer = alpha/beta III dimer (Bos taurus, UniProt Q2T9S0); conditions: compared with alpha/beta II and alpha/beta IV dimers; cited from earlier work
thioredoxin reductase = biological target: T1, thioredoxin reductase (Homo sapiens, UniProt Q16881); conditions: cited from earlier work
T1 sequence (Q16881 1-499 isoform Q16881-5): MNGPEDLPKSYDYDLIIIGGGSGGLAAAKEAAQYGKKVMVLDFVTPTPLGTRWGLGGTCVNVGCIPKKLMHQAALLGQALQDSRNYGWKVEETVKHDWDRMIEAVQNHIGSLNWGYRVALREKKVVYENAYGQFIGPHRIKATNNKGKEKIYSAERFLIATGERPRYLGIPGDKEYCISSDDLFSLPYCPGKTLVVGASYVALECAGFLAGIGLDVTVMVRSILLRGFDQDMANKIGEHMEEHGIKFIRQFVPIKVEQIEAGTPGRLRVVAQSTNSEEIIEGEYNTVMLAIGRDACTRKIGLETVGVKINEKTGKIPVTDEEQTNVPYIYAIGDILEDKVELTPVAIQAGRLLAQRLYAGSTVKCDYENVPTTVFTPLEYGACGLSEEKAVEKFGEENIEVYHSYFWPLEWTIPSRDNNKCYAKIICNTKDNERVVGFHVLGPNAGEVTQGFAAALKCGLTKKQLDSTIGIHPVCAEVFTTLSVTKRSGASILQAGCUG

[2] = biological target: T2, thioredoxin reductase/thioredoxin (Homo sapiens, UniProt Q16881); conditions: cited from earlier work
T2 sequence (Q16881 1-499 isoform Q16881-5): T1 sequence (Q16881 1-499 isoform Q16881-5)

alpha/beta III = biological target: T3, alpha/beta III (Bos taurus, UniProt Q2T9S0); conditions: cited from earlier work
T3 construct: from tissue; host or cells: bovine brain (cerebra)
T3 sequence (Q2T9S0 whole entry): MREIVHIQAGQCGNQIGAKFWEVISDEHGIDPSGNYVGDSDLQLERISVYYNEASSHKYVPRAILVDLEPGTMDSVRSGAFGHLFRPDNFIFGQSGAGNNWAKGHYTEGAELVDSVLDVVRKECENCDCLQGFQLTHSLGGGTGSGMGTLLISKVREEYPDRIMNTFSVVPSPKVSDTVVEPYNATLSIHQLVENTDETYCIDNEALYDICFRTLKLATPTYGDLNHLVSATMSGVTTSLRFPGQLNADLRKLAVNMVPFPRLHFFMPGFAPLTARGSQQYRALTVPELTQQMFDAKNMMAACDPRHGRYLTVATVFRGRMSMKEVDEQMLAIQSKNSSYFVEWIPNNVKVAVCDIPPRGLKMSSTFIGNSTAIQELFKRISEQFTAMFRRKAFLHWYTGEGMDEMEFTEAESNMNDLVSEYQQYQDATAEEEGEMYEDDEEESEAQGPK
T3 sequence (P81947 whole entry partner): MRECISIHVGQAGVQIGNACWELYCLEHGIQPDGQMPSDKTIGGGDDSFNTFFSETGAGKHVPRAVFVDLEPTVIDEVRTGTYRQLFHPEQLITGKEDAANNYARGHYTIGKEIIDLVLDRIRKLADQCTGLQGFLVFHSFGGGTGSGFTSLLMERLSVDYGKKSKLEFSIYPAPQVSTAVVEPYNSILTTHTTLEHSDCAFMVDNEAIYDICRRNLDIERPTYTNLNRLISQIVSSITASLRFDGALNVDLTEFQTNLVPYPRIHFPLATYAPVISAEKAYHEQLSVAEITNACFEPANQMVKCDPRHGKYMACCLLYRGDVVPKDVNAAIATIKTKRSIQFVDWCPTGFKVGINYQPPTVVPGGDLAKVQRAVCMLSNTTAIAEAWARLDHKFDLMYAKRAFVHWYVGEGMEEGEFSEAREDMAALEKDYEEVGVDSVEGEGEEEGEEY

alpha/beta II = biological target: T4, alpha/beta II (Bos taurus, UniProt Q6B856); conditions: cited from earlier work
T4 construct: from tissue; host or cells: bovine cerebra
T4 sequence (Q6B856 whole entry): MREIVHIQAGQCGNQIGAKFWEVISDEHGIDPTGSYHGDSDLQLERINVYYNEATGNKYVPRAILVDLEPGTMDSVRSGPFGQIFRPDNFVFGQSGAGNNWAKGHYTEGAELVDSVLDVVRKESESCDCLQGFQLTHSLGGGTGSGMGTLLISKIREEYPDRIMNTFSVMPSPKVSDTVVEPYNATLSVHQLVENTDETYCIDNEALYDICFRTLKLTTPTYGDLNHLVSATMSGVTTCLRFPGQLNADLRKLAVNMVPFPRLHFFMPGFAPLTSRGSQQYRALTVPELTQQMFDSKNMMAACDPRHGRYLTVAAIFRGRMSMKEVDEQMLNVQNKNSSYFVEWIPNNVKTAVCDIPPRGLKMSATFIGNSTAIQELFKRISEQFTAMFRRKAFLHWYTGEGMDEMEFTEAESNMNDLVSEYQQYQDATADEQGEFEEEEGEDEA
T4 sequence (P81947 whole entry partner): as the sequence (P81947 whole entry partner) above

alpha/beta IV = conditions: cited from earlier work
[3] = system: human MCF-7 breast cancer; conditions: MCF-7 tumor system, scid mice; cited from earlier work
[4] = system: colon tumors of min mouse; conditions: in the diet at 250 ppm, cited from earlier work
HL-60 leukemia = conditions: scid mice; a number of the animals without tumor at day 45; cited from earlier work
erythrocyte tubulin = biological target: T5, erythrocyte tubulin (Gallus gallus, UniProt P09207); design: dose or concentration left out as unconfirmed; conditions: cited from earlier work
T5 construct: from tissue; host or cells: chicken erythrocytes
T5 sequence (P09207 whole entry): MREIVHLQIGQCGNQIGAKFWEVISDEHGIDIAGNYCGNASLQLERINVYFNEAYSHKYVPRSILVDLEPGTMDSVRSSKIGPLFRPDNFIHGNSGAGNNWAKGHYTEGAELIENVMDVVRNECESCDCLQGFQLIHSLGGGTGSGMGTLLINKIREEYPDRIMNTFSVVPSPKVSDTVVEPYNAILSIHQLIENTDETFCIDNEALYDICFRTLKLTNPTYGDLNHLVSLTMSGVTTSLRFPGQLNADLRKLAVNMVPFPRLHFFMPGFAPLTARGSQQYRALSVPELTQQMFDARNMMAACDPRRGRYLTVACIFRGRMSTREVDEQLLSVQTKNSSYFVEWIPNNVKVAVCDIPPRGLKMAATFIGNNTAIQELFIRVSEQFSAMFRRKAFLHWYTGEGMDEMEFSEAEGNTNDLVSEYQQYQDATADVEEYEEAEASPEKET

brain tubulin = system: brain tubulin; design: dose or concentration left out as unconfirmed; conditions: cited from earlier work
[5] = 2.5 mg/kg, mice; cited from earlier work
[6] = biological target: T6, thioredoxin reductase and thioredoxin (Homo sapiens, UniProt P10599+Q16881); conditions: cited from earlier work
T6 sequence (Q16881 151-649 limits assumed): T1 sequence (Q16881 1-499 isoform Q16881-5)
T6 sequence (P10599 1-105): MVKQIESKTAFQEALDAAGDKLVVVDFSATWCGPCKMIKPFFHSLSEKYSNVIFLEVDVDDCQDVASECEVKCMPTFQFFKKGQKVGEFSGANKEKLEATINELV

Sequence of alpha/beta III dimer (Q2T9S0 whole entry): as the sequence (Q2T9S0 whole entry) above
Sequence of alpha/beta III dimer (P81947 whole entry partner, looked up): as the sequence (P81947 whole entry partner) above

In the case of CC(=O)O[C@H]1C(=O)[C@@]2(C)[C@H]([C@H](OC(=O)c3ccccc3)[C@]3(O)C[C@H](OC(=O)[C@H](O)[C@@H](NC(=O)c4ccccc4)c4ccccc4)C(C)=C1C3(C)C)[C@]1(OC(C)=O)CO[C@@H]1C[C@@H]2O [paclitaxel], the “resistance of cell line to drug” value [1] is listed as “resistant” and the “interaction of alpha/beta III dimer with ligand” value (alpha/beta III dimer) is listed as “much less strongly”.

For Cc1cccc2c1c1ccc3c(c1n2C)C(=O)C=CC3=O [NSC 645330], the “inhibition of thioredoxin reductase alone” value (thioredoxin reductase) is given as “did not inhibit thioredoxin reductase alone” and the “activity in the thioredoxin reductase/thioredoxin-dependent insulin assay” value [2] is given as “active”.

For COc1cc(OC)c(Cl)c(-n2c(-c3ccccc3)cc(=O)c(C)c2-c2ccc(F)cc2)c1 [IKP-104], the “apparent dissociation constant for the high-affinity site (Kd1)” value (“apparent dissociation constant” for short) (alpha/beta III) is listed as “lower than that of unfractionated tubulin”, the “apparent dissociation constant” value (alpha/beta II) is listed as “lower than that of unfractionated tubulin” and the “apparent dissociation constant” value (alpha/beta IV) is listed as “greater than those of unfractionated tubulin, alpha/beta II, or alpha/beta III”.

In the case of CCC(C)SSc1ncc[nH]1 (centres unmarked) [IV-2, 1-methylpropyl 2-imidazolyl disulfide], the tumor inhibition [3] is given as 98%, the “size of remaining tumors” value ([4]; p<0.001 compared to control) is given as “significant reduction” and the “reduction of the number of tumors in the colon” value ([4]; p=0.0160) is given as 70%. The “antitumor activity against HL-60 leukemia” value (HL-60 leukemia) was “showed antitumor activity”.

In the case of O=[N+]([O-])C(=C(Sc1ccccc1)Sc1ccccc1)C(Cl)=C(Cl)Cl [NSC 665103], the “inhibition of thioredoxin reductase alone” value (thioredoxin reductase) is given as “did not inhibit thioredoxin reductase alone” and the “activity in the thioredoxin reductase/thioredoxin-dependent insulin assay” value [2] is given as “active”.

For cryptophycin, the “resistance of cell line to drug” value [1] was “resistant”.

In the case of CC[C@]1(O)C[C@@H]2CN(CCc3c([nH]c4ccccc34)[C@@](C(=O)OC)(c3cc4c(cc3OC)N(C)[C@H]3[C@@](O)(C(=O)OC)[C@H](OC(C)=O)[C@]5(CC)C=CCN6CC[C@]43[C@@H]65)C2)C1 [vinblastine], the “resistance of cell line to drug” value [1] is given as “resistant”, the “erythrocyte tubulin formed spirals” value (erythrocyte tubulin) is given as 74% and the “brain tubulin aggregated into spirals” value (brain tubulin) is given as “About 42%”.

For CCCCCCCC(=O)OC1C2C(CC1(C)C)C(=O)C13OC1C(=O)C1(CO1)C23C (centres unmarked) [NSC 163027], the “inhibition of thioredoxin reductase alone” value (thioredoxin reductase) is listed as “did not inhibit thioredoxin reductase alone” and the “activity in the thioredoxin reductase/thioredoxin-dependent insulin assay” value [2] is listed as “active”.

For c1ccc(CSSc2ncc[nH]2)cc1 [DLK-36, benzyl-2-imidazolyl disulfide], the tumor inhibition [3] is given as 65% and the “antitumor activity against HL-60 leukemia” value (HL-60 leukemia) is given as “showed antitumor activity”.

For CC1=C(CO)C2=C(C)C3(CC3)[C@@](C)(O)C(=O)C2=C1 [irofulven], the tolerability [5] is listed as “tolerable” and the “inhibition of thioredoxin reductase and thioredoxin” value [6] is listed as “selectively inhibit both thioredoxin reductase and thioredoxin”.
